Source: ChEMBL document CHEMBL1145684, “New Guaiane Metabolites from the Caribbean Gorgonian Coral, Pseudopterogorgia americana” (J Nat Prod, 1997)
Converted amounts (≈) assume the structure as drawn.

Experiments:
MOLT-4 = assay: Cytotoxicity against human MOLT4 cells; assay type: functional, cell-based
HeLa = assay: Cytotoxicity against human HeLa cells; assay type: functional; conditions: read-out: ED50 (the source's name)
[1] = Cytotoxicity against chinese hamster CHOK1 cells; assay type: cell-based, Cricetulus griseus; conditions: CHO-K1 cells, read-out: ED50 (the source's name)
KM12 = assay: Cytotoxicity against human KM12 cells; assay type: functional, cell-based

| SMILES | IC50 (MOLT-4) [µg/mL] | EC50 (HeLa) [µg/mL] | CC50 [1] [µg/mL] | IC50 (KM12) [µg/mL] |
| --- | --- | --- | --- | --- |
| CO[C@]12C[C@@H](C)[C@]34O[C@H]3C[C@@]3(C)O[C@@]43CC1=C(C)C(=O)O2 [METHOXYAMERICANOLIDE A] | 0.1 (≈ 0.342 µM) |  |  |  |
| CC1=C2CC3=C(C)C(=O)O[C@H]3C[C@@H](C)[C@@H]2CC1 [AMERICANOLIDE D] |  | 30 (≈ 129 µM) | 100 (≈ 430 µM) | 0.1 (≈ 0.43 µM) |
